Assay [1] relates to Fibrosarcoma Meth A. Description: Test Method A: intradermally inoculated Meth A tumor in mice, intratumoral injection of test compound, tumor growth inhibition. Format: in vivo, BALB/c mice. Conditions: 100 µg/mouse intratumorally once daily from Day 1 to Day 4 postimplant; for Mean of two diameters of the growing tumor: 1 x 10^5 Meth A cells intradermally; for responders at 0.1 mg / inhibition in vivo at 0.1 mg: Meth-A; for responders at 0.1 mg: read-out: Ratio of tumor free mice [Number of tumor free mice/ Number of mice used as a group] (converted); for inhibition in vivo at 0.1 mg: Mus musculus, read-out: Tumor growth inhibition (%) [(1-T/c)x100]. The method, then:
Groups of six female BALB/c mice, aged 12 weeks and weighing 19 - 21 g were used.
Fib,rosarcoma Meth A (hereinafter referred to as Meth A) was successively transferred every 7 days into BALB/c mice by intraperitoneal inoculation of the ascites cells thereof and the Meth A in the ascites cells as harvested 6 days after the inoculation was used as tumor cells.
Each of the BALB/c mice was inoculated intradermally with 1 x 10^5 Meth A cells in 0.05 ml Hanks solution.
Test compound was dissolved in 0.5% methylcellulose saline solution, and was intratumorally injected to each of the mice in doses of 100 µg/mouse once daily from Day 1 to Day 4 postimplant.
The control group was given with a vehicle alone in the same way.
The antitumor effectiveness of the test compound was estimated by tumor growth inhibition (1-T/C). • T: Mean diameter of the growing tumor of the medicated group • C: Mean diameter of the growing tumor of the control group

Assay [2] relates to Fibrosarcoma Meth A. Description: Test Method B: intrapleurally inoculated Meth A tumor in mice, injection into pleural cavity, mean survival time. The following applies: for Anti-tumor activity (%) *d: comparison of mean survival time of medicated group (T) and control group (C), into pleural cavity three times; for Mean survival time: into pleural cavity three times (before 14 days, after 1 hour and after 3 days of tumor implantation), 5 x 10^5 Meth A cells intrapleurally. The arrangement: dose or concentration left out as unconfirmed. Format: in vivo, BALB/c mice.
Experimental: Groups of eight female BALB/c mice, aged 8-9 weeks and weighing 18.0-22.5 g were used.
Fibrosarcoma Meth A (hereinafter referred to as Meth A) was successively transferred every 7 days into BALB/c mice by intraperitoneal inoculation of the ascites cells thereof and the Meth A in the ascites cells as harvested 6 or 7 days after the inoculation was used as tumor cells.
Each of the BALB/c mice was inoculated intrapleurally with 5 x 10^5 Meth A cells in 0.1 ml Hanks solution.
Test compound was dissolved in phosphate buffer saline solution, and was injected into pleural cavity to each of the mice in doses of 100 pg/0.05 ml/mouse three times, i.e. before 14 days, after 1 hour and after 3 days of tumor implantation.
The antitumor activity of the test compound was estimated by comparing mean survival time of the two groups. • T : Mean survival time of the medicated group • C : Mean survival time of the control group

Like-named read-outs stand apart in the source and are kept apart here.

As for `CCCCCCCCCCCCCCCCCCOCC(COP(=O)([O-])OCC[n+]1ccccc1)OC` (racemic) [Example 1, (rac)-l-O-octadecyl-2-0-methyl-glycerol-3-[2-(1-pyridinio)ethyl]phosphate], in assay [1] (Day 14), the “Mean of two diameters of the growing tumor” value (from here on “Mean … of the growing tumor”) was 0 mm, the responders at 0.1 mg was 100% and the inhibition in vivo at 0.1 mg worked out at 100%. For the same compound, in assay [1] (Day 21), the “Ratio of tumor free mice [Number of tumor free mice/ Number of mice used as a group]” value is 6/6, the “Mean … of the growing tumor” value turned out to be 0 mm and the inhibition in vivo at 0.1 mg was 100%. In assay [2], the “Anti-tumor activity (%) *d” value is 367% and the Mean survival time worked out at 22.0 days.
With `CCCCCCCCCCCCCCCCCCOCC(COP(=O)(O)OCCN1CCN(C)CC1)OCC` (racemic) [3-(1), (rac)-l-O-Octadecyl-2-0-ethyl-glycerol-3-[2-(4-methyl-l-piperazinyl)ethyl]phosphate], in assay [1] (Day 14), the “Mean … of the growing tumor” value came out at 0 mm, the responders at 0.1 mg was 100% and the inhibition in vivo at 0.1 mg turned out to be 100%. Besides, in assay [1] (Day 21), the “Ratio of tumor free mice [Number of tumor free mice/ Number of mice used as a group]” value is reported as 6/6, the “Mean … of the growing tumor” value was 0 mm and the inhibition in vivo at 0.1 mg came to 100%. In assay [2], the “Anti-tumor activity (%) *d” value is listed as 342% and the Mean survival time is 20.5 days.
Regarding `CCCCCCCCCCCCCCCCCCOCC(COP(=O)([O-])OCC[n+]1ccccc1)SC` (racemic) [3-(31), (rac)-1-0-Octadecyl-2-methylthio-1,3-propanediol-3-[2-(l-pyridinio)ethyl]phosphate], in assay [2], the “Anti-tumor activity (%) *d” value is listed as 358% and the Mean survival time stood at 21.5 days.
For the compound `CCCCCCCCCCCCCCCCCCOCC(COP(=O)([O-])OCC[n+]1ccccn1)OC` (racemic) [3-(12), (rac)-1-0-Octadecyl-2-0-methyl-glycerol-3-[2-(1-pyridazinio)ethyl]phosphate], in assay [2], the “Anti-tumor activity (%) *d” value stood at 333% and the Mean survival time is 20.0 days.

For the origin of these results see EP0071892A2, “Phospholipid derivatives, process for preparation thereof and pharmaceutical composition of the same” (priority 1981, dated 1983).
